For 17 molecules, IC50 results are on record in patent US10131679B2, “Substituted dihydropyrrolopyrazole compound” (UBE INDUSTRIES, LTD., priority 2014, dated 2018).

The structures appear in SMILES notation.

In one experiment the test system is Human keratinocytes (NHEK-Neo Pooled). Kind of experiment: Human keratinocyte growth inhibition assay. It counts as cell-based. The following applies: 48 h, culture for 2 days, Cell Counting Kit-8. The protocol: Human Keratinocyte Growth Inhibition Assay
The measurement of a human keratinocyte growth inhibitory effect was carried out by modifying the method of Schafer et al. (British Journal of Pharmacology, 159, 842 (2011)).
Human keratinocytes (NHEK-Neo Pooled, manufactured by Lonza Group AG, Cat. No. 00192906) were cultured in KGM-Gold Bullet Kit (manufactured by Lonza Group AG, Cat. No. 00192060) and inoculated at 2.0×10^3 cells/well to a 96-well plate. After overnight culture in a carbon dioxide incubator, a test compound dissolved in DMSO (final DMSO concentration: 0.1%) was added and left standing in a carbon dioxide incubator. After culture for 2 days, the absorbance thereof was measured by using Cell Counting Kit-8 (343-07623 manufactured by Dojindo Laboratories)).
The rate of inhibition of cell growth at each concentration was calculated from the test compound concentration and the absorbance of Cell Counting Kit-8, and the concentration of the test compound necessary for inhibiting 50% of cell growth (IC50 value) was calculated by using EXSUS (version 8.0.0 or version 8.0.1, manufactured by CAC Exicare Corp.).
(Tetrazolium assays rely on reduction of a dye to a coloured formazan, in cell work by metabolically active cells.)
By IC50 is commonly meant the concentration that inhibits the measured activity by half. Low readings indicate greater potency in that assay, high ones weaker potency in that assay. Consider `CC(C)(CO)C(NC(=O)N1Cc2c(NC(=O)C3([Si](C)(C)C)CCC3)n[nH]c2C1(C)C)c1ccccc1` (racemic) [IV-354, N-(3-Hydroxy-2,2-dimethyl-1-phenylpropyl)-6,6-dimethyl-3-[1-(trimethylsilyl)cyclobutanecarboxamido]-4,6-dihydropyrrolo[3,4-c]pyrazole-5(1H)-carboxamide], for which the IC50 was ≤ 500 nM. Same read-out and setting: as for `CCOC[C@@H](NC(=O)N1Cc2c(NC(=O)C3([Si](C)(C)C)CCC3)n[nH]c2C1(C)C)c1ccccc1` [IV-139, (S)—N-(2-Ethoxy-1-phenylethyl)-6,6-dimethyl-3-[1-(trimethylsilyl)cyclobutanecarboxamido]-4,6-dihydropyrrolo[3,4-c]pyrazole-5(1H)-carboxamide], the figure is ≤ 500 nM; as for `CC(C)(O)C[C@@H](NC(=O)N1Cc2c(NC(=O)C3([Si](C)(C)C)CCC3)n[nH]c2C1(C)C)c1ccccc1` [IV-299, (R)—N-(3-Hydroxy-3-methyl-1-phenylbutyl)-6,6-dimethyl-3-[1-(trimethylsilyl)cyclobutanecarboxamido]-4,6-dihydropyrrolo[3,4-c]pyrazole-5(1H)-carboxamide], ≤ 500 nM.

The test system of the next experiment is IL-17 production in human PBMC-derived T cells. The experiment can be described thus: Human PBMC various-stimulant cocktail-induced IL-17 production inhibition test. Format: cell-based. As to conditions: 120 h; human T-cell suspension from PBMC, cocktail of various stimulants, incubation for 5 days, ELISA. The source says: Human PBMC Various-Stimulant Cocktail-Induced IL-17 Production Inhibition Test
PBMC was separated and collected by using Ficoll-Paque (17-1440-02 manufactured by GE Healthcare Japan Corp.) from blood collected from healthy human adult in the presence of heparin. The collected PBMC was further cultured in a flask for a certain time, and then, non-adherent cells in the supernatant were collected and used as a T-cell suspension. RPMI1640 medium (manufactured by GIBCO/Thermo Fisher Scientific, Inc., REF. 11875), which is containing 10% FBS (manufactured by GIBCO/Thermo Fisher Scientific, Inc., REF. 10082), 1% penicillin/streptomycin/amphotericin B (manufactured by GIBCO/Thermo Fisher Scientific, Inc., REF. 15240-096), 1% nonessential amino acids (manufactured by GIBCO/Thermo Fisher Scientific, Inc., REF. 11140-050), and 1% pyruvic acid (manufactured by GIBCO/Thermo Fisher Scientific, Inc., REF. 11140) and containing a test compound dissolved in DMSO, 2 μg/mL (final concentration) CD28 antibody (manufactured by BioLegend, Inc., Cat. No. 302914), 10 μg/mL (final concentration) human IFN-γ antibody (manufactured by BD Biosciences, Cat. No. 554698), 10 μg/mL (final concentration) human IL-4 antibody (manufactured by BD Biosciences, Cat. No. 554481), 20 ng/mL (final concentration) human IL-6 (manufactured by BioLegend, Inc., Cat. No. 570802), 10 ng/mL (final concentration) human IL-23 (manufactured by BioLegend, Inc., Cat. No. 574102), 10 ng/mL (final concentration) human IL-1(3 (manufactured by PeproTech Inc., Cat. No. 200-01B), and 10 ng/mL (final concentration) human TGF-13 (manufactured by BioLegend, Inc., Cat. No. 580702), was added at 100 μL/well to T cell Activation Plate Anti-Human CD3 96-well plate (manufactured by Corning Inc., REF. 354725). Subsequently, 100 μL of a T-cell suspension adjusted to 2×10^5 cells/mL was added to each well (final DMSO concentration: 0.1%). Only DMSO was added to wells in the absence of the test compound. After incubation for 5 days in a carbon dioxide incubator, the culture supernatant was collected and stored at −20° C. until IL-17 content measurement.
In the IL-17 content measurement in the culture supernatant, a sandwich ELISA kit (Quantikine Human IL-17, manufactured by R&D Systems, Inc.) was used. The IL-17 content of each sample was calculated from the calibration curve of Standard IL-17 included in the kit. When the amount of IL-17 produced by the cocktail of various stimulants in the case of the addition of only DMSO was defined as 100%, the rate of inhibition of IL-17 production at each concentration of the test compound was calculated. The concentration of the test compound necessary for inhibiting 50% of IL-17 production (IC50 value) was calculated from the concentration of the added test compound and the rate of inhibition of IL-17 production by the test compound by using EXSUS (version 8.0.0 or version 8.0.1, manufactured by CAC Exicare Corp.).
(ELISA stands for enzyme-linked immunosorbent assay.)
Consider `CC(C)(CO)C(NC(=O)N1Cc2c(NC(=O)C3([Si](C)(C)C)CCC3)n[nH]c2C1(C)C)c1ccccc1` (racemic) [IV-354, N-(3-Hydroxy-2,2-dimethyl-1-phenylpropyl)-6,6-dimethyl-3-[1-(trimethylsilyl)cyclobutanecarboxamido]-4,6-dihydropyrrolo[3,4-c]pyrazole-5(1H)-carboxamide], for which the IC50 is ≤ 50 nM. Still for that read-out and setting: as for `CC(C)(CO)C(NC(=O)N1Cc2c(NC(=O)C3([Si](C)(C)C)CCC3)n[nH]c2C1(C)C)c1ccccc1` (single isomer, unassigned; (-)) [IV-673, (−)-N-(3-Hydroxy-2,2-dimethyl-1-phenylpropyl)-6,6-dimethyl-3-[1-(trimethylsilyl)cyclobutanecarboxamido]-4,6-dihydropyrrolo[3,4-c]pyrazole-5(1H)-carboxamide], the figure is ≤ 50 nM.

In the case of `CC(C)(O)C[C@@H](NC(=O)N1Cc2c(NC(=O)C3([Si](C)(C)C)CCC3)n[nH]c2C1(C)C)c1ccccc1` [IV-299, (R)—N-(3-Hydroxy-3-methyl-1-phenylbutyl)-6,6-dimethyl-3-[1-(trimethylsilyl)cyclobutanecarboxamido]-4,6-dihydropyrrolo[3,4-c]pyrazole-5(1H)-carboxamide], the IC50 is ≤ 50 nM.

Turning to `CC1(C)c2[nH]nc(NC(=O)C3([Si](C)(C)C)CCC3)c2CN1C(=O)NC(c1ccccc1)C1(CO)CCC1` (stereo not shown) [IV-718, N-{[1-(Hydroxymethyl)cyclobutyl](phenyl)methyl}-6,6-dimethyl-3-[1-(trimethylsilyl)cyclobutanecarboxamido]-4,6-dihydropyrrolo[3,4-c]pyrazole-5(1H)-carboxamide], the IC50 is ≤ 50 nM. As to `CC1(C)c2[nH]nc(NC(=O)C3([Si](C)(C)C)CCC3)c2CN1C(=O)N[C@H](CC1(O)CC1)c1ccccc1` [IV-743, (R)—N-[2-(1-Hydroxycyclopropyl)-1-phenylethyl]-6,6-dimethyl-3-[1-(trimethylsilyl)cyclobutanecarboxamido]-4,6-dihydropyrrolo[3,4-c]pyrazole-5(1H)-carboxamide], the IC50 was ≤ 50 nM. On to `CC(C)(O)C[C@@H](NC(=O)N1Cc2c(NC(=O)C3([Si](C)(C)C)CCC3)n[nH]c2C1(C)C)c1cccc(F)c1` [IV-911, (R)—N-[1-(3-Fluorophenyl)-3-hydroxy-3-methylbutyl]-6,6-dimethyl-3-[1-(trimethylsilyl)cyclobutanecarboxamido]-4,6-dihydropyrrolo[3,4-c]pyrazole-5(1H)-carboxamide], for which the 50% inhibitory concentration (IC50) was ≤ 50 nM. Still for that read-out and setting: as for `CC(C)(CO)C(NC(=O)N1Cc2c(NC(=O)C3([Si](C)(C)C)CCC3)n[nH]c2C1(C)C)c1cccc(F)c1` (stereo not shown) [IV-918, N-[1-(3-Fluorophenyl)-3-hydroxy-2,2-dimethylpropyl]-6,6-dimethyl-3-[1-(trimethylsilyl)cyclobutanecarboxamido]-4,6-dihydropyrrolo[3,4-c]pyrazole-5(1H)-carboxamide], the figure is ≤ 50 nM; as for `CC(C)(O)C[C@@H](NC(=O)N1Cc2c(NC(=O)C3([Si](C)(C)C)CCC3)n[nH]c2C1(C)C)c1ccc(F)cc1` [IV-939, (R)—N-[1-(4-Fluorophenyl)-3-hydroxy-3-methylbutyl]-6,6-dimethyl-3-[1-(trimethylsilyl)cyclobutanecarboxamido]-4,6-dihydropyrrolo[3,4-c]pyrazole-5(1H)-carboxamide], ≤ 50 nM; as for `CC(C)(CO)C(NC(=O)N1Cc2c(NC(=O)C3([Si](C)(C)C)CCC3)n[nH]c2C1(C)C)c1ccc(F)cc1` (stereo not shown) [IV-946, N-[1-(4-Fluorophenyl)-3-hydroxy-2,2-dimethylpropyl]-6,6-dimethyl-3-[1-(trimethylsilyl)cyclobutanecarboxamido]-4,6-dihydropyrrolo[3,4-c]pyrazole-5(1H)-carboxamide], ≤ 50 nM. The same measure, in the same setting: the value for `CC1(C)c2[nH]nc(NC(=O)C3([Si](C)(C)C)CCC3)c2CN1C(=O)[C@H](OC(F)(F)F)c1ccccc1` [IV-1184, (R)—N-{6,6-Dimethyl-5-[2-phenyl-2-(trifluoromethoxy)acetyl]-1,4,5,6-tetrahydropyrrolo[3,4-c]pyrazol-3-yl}-1-(trimethylsilyl)cyclobutanecarboxamide] was ≤ 50 nM; that for `CCCO[C@@H](C(=O)N1Cc2c(NC(=O)C3([Si](C)(C)C)CCC3)n[nH]c2C1(C)C)c1ccccc1` [IV-1196, (R)—N-[6,6-Dimethyl-5-(2-phenyl-2-propoxyacetyl)-1,4,5,6-tetrahydropyrrolo[3,4-c]pyrazol-3-yl]-1-(trimethylsilyl)cyclobutanecarboxamide] was ≤ 50 nM.

For `CC(C)O[C@@H](C(=O)N1Cc2c(NC(=O)C3([Si](C)(C)C)CCC3)n[nH]c2C1(C)C)c1ccccc1` [IV-1204, (R)—N-[5-(2-Isopropoxy-2-phenylacetyl)-6,6-dimethyl-1,4,5,6-tetrahydropyrrolo[3,4-c]pyrazol-3-yl]-1-(trimethylsilyl)cyclobutanecarboxamide], the IC50 is ≤ 50 nM. Turning to `CC1(C)c2[nH]nc(NC(=O)C3([Si](C)(C)C)CCC3)c2CN1C(=O)[C@H](OC1CC1)c1ccccc1` [IV-1208, (R)—N-[5-(2-Cyclopropoxy-2-phenylacetyl)-6,6-dimethyl-1,4,5,6-tetrahydropyrrolo[3,4-c]pyrazol-3-yl]-1-(trimethylsilyl)cyclobutanecarboxamide], the IC50 is ≤ 50 nM. Same read-out and setting: as for `CO[C@@H](C(=O)N1Cc2c(NC(=O)C3([Si](C)(C)C)CCC3)n[nH]c2C1(C)C)c1ccccc1F` [IV-1383, (R)—N-{5-[2-(2-Fluorophenyl)-2-methoxyacetyl]-6,6-dimethyl-1,4,5,6-tetrahydropyrrolo[3,4-c]pyrazol-3-yl}-1-(trimethylsilyl)cyclobutanecarboxamide], the figure is ≤ 50 nM; as for `COC(C(=O)N1Cc2c(NC(=O)C3([Si](C)(C)C)CCC3)n[nH]c2C1(C)C)c1cccc(F)c1` (stereo not shown) [IV-1404, N-{5-[2-(3-Fluorophenyl)-2-methoxyacetyl]-6,6-dimethyl-1,4,5,6-tetrahydropyrrolo[3,4-c]pyrazol-3-yl}-1-(trimethylsilyl)cyclobutanecarboxamide], ≤ 50 nM; as for `COC(C(=O)N1Cc2c(NC(=O)C3([Si](C)(C)C)CCC3)n[nH]c2C1(C)C)c1cccs1` (stereo not shown) [IV-1546, N-{5-[2-Methoxy-2-(thiophen-2-yl)acetyl]-6,6-dimethyl-1,4,5,6-tetrahydropyrrolo[3,4-c]pyrazol-3-yl}-1-(trimethylsilyl)cyclobutanecarboxamide], ≤ 50 nM.
